Measured values reported in patent publication US11584763B2, “Chromenopyridine derivatives as phosphatidylinositol phosphate kinase inhibitors” (HIBERCELL, INC., priority 2017, dated 2023).

Legend:
PIP4K2B = target: T1, PIP4K2B (Homo sapiens, UniProt P78356); assay: Trans-FI P kinase assay PIP4K2B (PIP4KtypeIIB inhibition assay); type: biochemical; conditions: compounds listed under IC50 bin headings; 100 uM GTP; read-out: Trans-FI P kinase assays: PIP4K2B IC50
T1 construct: made in house; host or cells: E. coli
T1 sequence (P78356 1-416): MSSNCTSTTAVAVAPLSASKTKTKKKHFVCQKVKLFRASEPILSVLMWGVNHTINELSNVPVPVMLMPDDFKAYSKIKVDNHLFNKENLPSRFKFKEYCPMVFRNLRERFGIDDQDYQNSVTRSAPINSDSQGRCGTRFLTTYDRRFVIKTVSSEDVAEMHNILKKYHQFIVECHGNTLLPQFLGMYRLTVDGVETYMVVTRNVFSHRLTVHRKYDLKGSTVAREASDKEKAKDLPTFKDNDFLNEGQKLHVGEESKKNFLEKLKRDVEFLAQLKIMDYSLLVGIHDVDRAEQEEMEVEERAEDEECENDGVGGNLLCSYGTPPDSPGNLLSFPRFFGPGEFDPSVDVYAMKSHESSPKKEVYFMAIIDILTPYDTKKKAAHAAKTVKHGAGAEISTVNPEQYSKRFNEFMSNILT
In short: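 GST-tagged human PIP4K2B (5 nM, E. coli-expressed) preincubated 1 h at 27 C with compound (top 4.8 uM, 5% DMSO), then reacted 2 h with 100 uM GTP and 80 uM PI5P/DOPE vesicles in HEPES pH 7.3, MgCl2, Triton X-100. GDP detected by Transcreener FI fluorescence via calibration curve; IC50 from % activity vs log[inhibitor].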

PIP4K 2A = target: T2, PIP4K 2A (Homo sapiens, UniProt P48426); assay: ADP-glo kinase assay PIP4K 2A; type: biochemical; parameters: 4 nM PIP4K2A (full length protein, SignalChem); purchased SignalChem; conditions: compounds listed under IC50 bin headings
T2 sequence (P48426 1-406): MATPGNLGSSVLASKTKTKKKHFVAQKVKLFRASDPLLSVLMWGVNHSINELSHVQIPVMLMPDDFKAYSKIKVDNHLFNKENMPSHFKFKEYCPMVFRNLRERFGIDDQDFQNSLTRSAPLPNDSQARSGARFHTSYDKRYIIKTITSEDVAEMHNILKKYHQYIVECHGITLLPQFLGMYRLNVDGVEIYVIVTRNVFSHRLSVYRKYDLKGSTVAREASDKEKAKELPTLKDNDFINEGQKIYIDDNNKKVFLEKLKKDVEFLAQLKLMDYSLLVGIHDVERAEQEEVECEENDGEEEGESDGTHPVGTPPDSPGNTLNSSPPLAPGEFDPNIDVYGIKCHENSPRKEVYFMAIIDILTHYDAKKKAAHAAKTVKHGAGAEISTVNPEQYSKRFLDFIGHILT
In short: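 Full-length PIP4K2A was pre-incubated 15 min at RT with compound in 20 mM MOPS pH 7.2, 25 mM MgCl2, 0.005% Tween 20. The enzyme mix held 4 nM kinase and 100 μM PI(5)P diC8, and ATP was added from a 60 μM solution. After 1 h at RT, ADP-Glo luminescence gave % inhibition versus DMSO, fitted to IC50 over 10 threefold dilutions.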

## O=C1CCCN1c1ccc(-c2ccc(Nc3cnc4c(c3)N3C(=O)C5(CC5)C[C@H]3CO4)nc2)cc1F [Example 197, (S)-2′-((5-(3-fluoro-4-(2-oxopyrrolidin-1-yl)phenyl)pyridin-2-yl)amino)-6a′,7′-dihydro-6′H,9′H-spiro[cyclopropane-1,8′-pyrido[2,3-b]pyrrolo[1,2-d][1,4]oxazin]-9′-one]
PIP4K2B
  IC50: 1 to 10 nM
PIP4K 2A
  IC50: 1 to 10 nM

## COc1ccc(C(=O)Nc2cncc(Nc3cc4c(cn3)-c3ccc(N5CCCC5=O)cc3OC4C)c2)cc1 (centres unmarked) [Example 122, 4-methoxy-N-(5-((5-methyl-8-(2-oxopyrrolidin-1-yl)-5H-chromeno[4,3-c]pyridin-3-yl)amino)pyridin-3-yl)benzamide]
PIP4K2B
  IC50: 10 to 100 nM
PIP4K 2A
  IC50: 1 to 10 nM

## CC1Oc2cc(N3CCCC3=O)ccc2-c2cnc(Nc3cncc(NC(=O)c4cc5ccccc5[nH]4)c3)cc21 (centres unmarked) [Example 141, N-(5-((5-methyl-8-(2-oxopyrrolidin-1-yl)-5H-chromeno[4,3-c]pyridin-3-yl)amino)pyridin-3-yl)-1H-indole-2-carboxamide]
PIP4K2B
  IC50: 10 to 100 nM
PIP4K 2A
  IC50: 1 to 10 nM

## COc1ncc(Nc2cc3c(cn2)-c2ccc(N4CCCC4=O)cc2OC3(C)C)cc1NC(C)=O [Example 191, N-(5-((5,5-dimethyl-8-(2-oxopyrrolidin-1-yl)-5H-chromeno[4,3-c]pyridin-3-yl)amino)-2-methoxypyridin-3-yl)acetamide]
PIP4K2B
  IC50: 100 to 1000 nM
PIP4K 2A
  IC50: 100 to 1000 nM

## CC1Oc2cc(N3CCCC3=O)ccc2-c2cnc(Nc3cncc(N4CCN(Cc5cccc(NC(=O)CNC(=O)/C=C/CN(C)C)c5)C4=O)c3)cc21 (centres unmarked) [Example 178, (E)-4-(dimethylamino)-N-(2-((3-((3-(5-((5-methyl-8-(2-oxopyrrolidin-1-yl)-5H-chromeno[4,3-c]pyridin-3-yl)amino)pyridin-3-yl)-2-oxoimidazolidin-1-yl)methyl)phenyl)amino)-2-oxoethyl)but-2-enamide]
PIP4K2B
  IC50: 1 to 10 nM
PIP4K 2A
  IC50: ≤ 1 nM

## CC1Oc2cc(N3CCCC3=O)ccc2-c2cnc(Nc3cncc(NC(=O)c4ccc5c(c4)B(O)OC5)c3)cc21 (centres unmarked) [Example 117, 1-hydroxy-N-(5-((5-methyl-8-(2-oxopyrrolidin-1-yl)-5H-chromeno[4,3-c]pyridin-3-yl)amino)pyridin-3-yl)-1,3-dihydrobenzo[c][1,2]oxaborole-6-carboxamide]
PIP4K2B
  IC50: 10 to 100 nM
PIP4K 2A
  IC50: 1 to 10 nM

## CC1Oc2cc(N3CCCC3=O)ccc2-c2cnc(Nc3cncc(NC(=O)C4CCCO4)c3)cc21 (centres unmarked) [Example 135, N-(5-((5-methyl-8-(2-oxopyrrolidin-1-yl)-5H-chromeno[4,3-c]pyridin-3-yl)amino)pyridin-3-yl)tetrahydrofuran-2-carboxamide]
PIP4K2B
  IC50: 10 to 100 nM
PIP4K 2A
  IC50: 1 to 10 nM

## CC1Oc2cc(N3CCCC3=O)ccc2-c2cncc(Nc3ccncc3)c21 (centres unmarked) [Example 203, 1-(5-methyl-4-(pyridin-4-ylamino)-5H-chromeno[4,3-c]pyridin-8-yl)pyrrolidin-2-one]
PIP4K2B
  IC50: > 1000 nM
PIP4K 2A
  IC50: > 1000 nM

## CC1Oc2cc(N3CCCC3=O)ccc2-c2cnc(Nc3cncc(NC(=O)C4Cc5ccccc5C4)c3)cc21 (centres unmarked) [Example 138, N-(5-((5-methyl-8-(2-oxopyrrolidin-1-yl)-5H-chromeno[4,3-c]pyridin-3-yl)amino)pyridin-3-yl)-2,3-dihydro-1H-indene-2-carboxamide]
PIP4K2B
  IC50: 10 to 100 nM
PIP4K 2A
  IC50: 10 to 100 nM

## CC1(C)Oc2cc(N3CCCC3=O)ccc2-c2cnc(Nc3cncc(N4CCNC4=O)c3)cc21 [Example 162, 1-(5-((5,5-dimethyl-8-(2-oxopyrrolidin-1-yl)-5H-chromeno[4,3-c]pyridin-3-yl)amino)pyridin-3-yl)imidazolidin-2-one]
PIP4K2B
  IC50: 10 to 100 nM
PIP4K 2A
  IC50: 1 to 10 nM

## CC1Oc2cc(N3CCCC3=O)ccc2-c2cnc(Nc3cncc(NC(=O)C(O)Cc4ccccc4)c3)cc21 (centres unmarked) [Example 134, 2-hydroxy-N-(5-((5-methyl-8-(2-oxopyrrolidin-1-yl)-5H-chromeno[4,3-c]pyridin-3-yl)amino)pyridin-3-yl)-3-phenylpropanamide]
PIP4K2B
  IC50: 10 to 100 nM
PIP4K 2A
  IC50: 1 to 10 nM

## O=C1CCCN1c1ccc2c(c1)OCc1cc(Nc3cncc(N4CCNC4=O)c3)ncc1-2 [Example 160, 1-(5-((8-(2-oxopyrrolidin-1-yl)-5H-chromeno[4,3-c]pyridin-3-yl)amino)pyridin-3-yl)imidazolidin-2-one]
PIP4K2B
  IC50: 10 to 100 nM
PIP4K 2A
  IC50: 1 to 10 nM

## CC1Oc2cc(N3CCCC3=O)ccc2-c2cnc(Nc3cncc(NC(=O)c4ccc5cc[nH]c5c4)c3)cc21 (centres unmarked) [Example 108, N-(5-((5-methyl-8-(2-oxopyrrolidin-1-yl)-5H-chromeno[4,3-c]pyridin-3-yl)amino)pyridin-3-yl)-1H-indole-6-carboxamide]
PIP4K2B
  IC50: 10 to 100 nM
PIP4K 2A
  IC50: 1 to 10 nM

## CC1Oc2cc(N3CCCC3=O)c(F)cc2-c2cnc(Nc3cnc4c(c3)N3C(=O)C5(CC5)C[C@H]3CO4)cc21 (some centres unmarked) [Example 154, (6a′S)-2′-((9-fluoro-5-methyl-8-(2-oxopyrrolidin-1-yl)-5H-chromeno[4,3-c]pyridin-3-yl)amino)-6a′,7′-dihydro-6′H,9′H-spiro[cyclopropane-1,8′-pyrido[2,3-b]pyrrolo[1,2-d][1,4]oxazin]-9′-one]
PIP4K2B
  IC50: 1 to 10 nM
PIP4K 2A
  IC50: ≤ 1 nM

## CC1(C)Oc2cc(N3CCCC3=O)ccc2-c2cnc(Nc3cnc4c(c3)N3C(=O)CC[C@H]3CO4)nc21 [Example 189, (S)-2-((5,5-dimethyl-8-(2-oxopyrrolidin-1-yl)-5H-chromeno[3,4-d]pyrimidin-3-yl)amino)-6,6a,7,8-tetrahydro-9H-pyrido[2,3-b]pyrrolo[1,2-d][1,4]oxazin-9-one]
PIP4K2B
  IC50: 1 to 10 nM
PIP4K 2A
  IC50: ≤ 1 nM

## CC1Oc2cc(N3CCCC3=O)ccc2-c2cnc(Nc3cncc(NC(=O)c4cccnc4)c3)cc21 (centres unmarked) [Example 113, N-(5-((5-methyl-8-(2-oxopyrrolidin-1-yl)-5H-chromeno[4,3-c]pyridin-3-yl)amino)pyridin-3-yl)nicotinamide]
PIP4K2B
  IC50: 10 to 100 nM
PIP4K 2A
  IC50: 1 to 10 nM

## CC1Oc2cc(N3CCCC3=O)ccc2-c2cnc(Nc3cncc(NC(=O)C4Cc5ccccc5O4)c3)cc21 (centres unmarked) [Example 142, N-(5-((5-methyl-8-(2-oxopyrrolidin-1-yl)-5H-chromeno[4,3-c]pyridin-3-yl)amino)pyridin-3-yl)-2,3-dihydrobenzofuran-2-carboxamide]
PIP4K2B
  IC50: 100 to 1000 nM
PIP4K 2A
  IC50: 10 to 100 nM

## O=C1NCCN1c1cncc(Nc2cc3c(cn2)-c2cc(F)c(N4CCCC4=O)cc2OC3)c1 [Example 161, 1-(5-((9-fluoro-8-(2-oxopyrrolidin-1-yl)-5H-chromeno[4,3-c]pyridin-3-yl)amino)pyridin-3-yl)imidazolidin-2-one]
PIP4K2B
  IC50: 10 to 100 nM
PIP4K 2A
  IC50: 1 to 10 nM

## CC1Oc2cc(N3CCCC3=O)ccc2-c2cnc(Nc3cncc(NC(=O)c4cnc5ccccn45)c3)cc21 (centres unmarked) [Example 143, N-(5-((5-methyl-8-(2-oxopyrrolidin-1-yl)-5H-chromeno[4,3-c]pyridin-3-yl)amino)pyridin-3-yl)imidazo[1,2-a]pyridine-3-carboxamide]
PIP4K2B
  IC50: 1 to 10 nM
PIP4K 2A
  IC50: ≤ 1 nM

## CC(Cc1ccccc1)C(=O)Nc1cncc(Nc2cc3c(cn2)-c2ccc(N4CCCC4=O)cc2OC3C)c1 (centres unmarked) [Example 133, 2-methyl-N-(5-((5-methyl-8-(2-oxopyrrolidin-1-yl)-5H-chromeno[4,3-c]pyridin-3-yl)amino)pyridin-3-yl)-3-phenylpropanamide]
PIP4K2B
  IC50: 10 to 100 nM
PIP4K 2A
  IC50: 1 to 10 nM

## CC1Oc2cc(N3CCCC3=O)ccc2-c2cnc(Nc3cncc(NC(=O)c4ccc(NC(=O)/C=C/CN(C)C)cc4)c3)cc21 (centres unmarked) [Example 174, (E)-4-(4-(dimethylamino)but-2-enamido)-N-(5-((5-methyl-8-(2-oxopyrrolidin-1-yl)-5H-chromeno[4,3-c]pyridin-3-yl)amino)pyridin-3-yl)benzamide]
PIP4K2B
  IC50: 10 to 100 nM
PIP4K 2A
  IC50: 1 to 10 nM

## CC1C[C@H]2COc3ncc(Nc4cc5c(cn4)-c4ccc(N6CCCC6=O)cc4OC5C)cc3N2C1=O (stereo partly drawn) [Example 155, (6aS)-8-methyl-2-((5-methyl-8-(2-oxopyrrolidin-1-yl)-5H-chromeno[4,3-c]pyridin-3-yl)amino)-6,6a,7,8-tetrahydro-9H-pyrido[2,3-b]pyrrolo[1,2-d][1,4]oxazin-9-one]
PIP4K2B
  IC50: 1 to 10 nM
PIP4K 2A
  IC50: ≤ 1 nM
